In ChEMBL document CHEMBL1201862, “PubChem BioAssay data set” (2004):
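96-well plates; 48 h exposure; 5 concentrations. Endpoints by linear interpolation between flanking doses. Not reached: highest tested concentration assigned. GI50 = concentration required for 50% inhibition of growth.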 Active and inactive are the calls of the source. Rule as the data show it: active = GI50 up to about 1.1 µM and inactive = higher.

What was measured:
Experiment in all cases: DTP human tumour cell line panel, 48 h
A498 = system: A498
A549 = system: A549
CCRF-CEM = system: CCRF-CEM
DLD-1 = system: DLD-1
DMS-273 = system: DMS-273
HCT-15 = system: HCT-15
HOP-18 = system: HOP-18
HOP-92 = system: HOP-92
KM-20L2 = system: KM-20L2
LOX IMVI = system: LOX IMVI
SK-MEL-5 = system: SK-MEL-5
SW-620 = system: SW-620
UACC-257 = system: UACC-257
DU-145 = system: DU-145
Hs-578T = system: Hs-578T
M14 = system: M14
MDA-MB-435 = system: MDA-MB-435
PC-3 = system: PC-3
TK-10 = system: TK-10
XF498 = system: XF498

SMILES	GI50 (A498)	GI50 (A549)	GI50 (CCRF-CEM)	GI50 (DLD-1)	GI50 (DMS-273)	GI50 (HCT-15) [µM]	GI50 (HOP-18)	GI50 (HOP-92)	GI50 (KM-20L2)	GI50 (LOX IMVI)	GI50 (SK-MEL-5)	GI50 (SW-620)	GI50 (UACC-257)	GI50 (DU-145)	GI50 (Hs-578T)	GI50 (M14)	GI50 (MDA-MB-435)	GI50 (PC-3)	GI50 (TK-10)	GI50 (XF498)
CCCCSCC(NC(=O)/C=C/c1c(C)[nH]c(=O)[nH]c1=O)C(=O)OC (stereo not given)	79.6 µM (inactive)	124 µM (inactive)	20 µM (inactive)	54.8 µM (inactive)	88.3 µM (inactive)	148	61.2 µM (inactive)	36.1 µM (inactive)	61.7 µM (inactive)	78.3 µM (inactive)	64.9 µM (inactive)	78 µM (inactive)	81.7 µM (inactive)	–	–	–	–	–	–	–
C=C[C@H]1CN2CCc3c([nH]c4c([C@@H]5CCCN5C)c(O)ccc34)[C@@H]2C[C@@H]1C[C@H]1c2[nH]c3ccccc3c2CCN1C	1.63 µM (inactive)	0.764 µM (active)	0.188 µM (active)	–	–	1.02	–	1.19 µM (inactive)	–	0.179 µM (active)	1.66 µM (inactive)	1.23 µM (inactive)	3.18 µM (inactive)	1.48 µM (inactive)	1.52 µM (inactive)	0.307 µM (active)	1.48 µM (inactive)	1.41 µM (inactive)	1.59 µM (inactive)	–
CC(C)=CCC/C(C)=C/CC/C(C)=C/CC/C(=C/CC/C(C)=C\CC/C(C)=C/CC/C(C)=C/CC/C(C)=C/Cc1cc(O)ccc1O)CO	5.33 µM (inactive)	4.14 µM (inactive)	3.56 µM (inactive)	–	–	7.11	–	9.59 µM (inactive)	–	2.94 µM (inactive)	2.48 µM (inactive)	8.71 µM (inactive)	3.07 µM (inactive)	32.6 µM (inactive)	2.51 µM (inactive)	0.681 µM (active)	1.12 µM (active)	4.2 µM (inactive)	6.61 µM (inactive)	–
Cn1cc(C(=O)c2nccc3c2cnc2ccccc23)ccc1=O	> 100 µM (inactive)	56.1 µM (inactive)	> 100 µM (inactive)	–	–	> 100	–	> 100 µM (inactive)	–	> 100 µM (inactive)	15.3 µM (inactive)	> 100 µM (inactive)	> 100 µM (inactive)	> 100 µM (inactive)	> 100 µM (inactive)	> 100 µM (inactive)	> 100 µM (inactive)	> 100 µM (inactive)	> 100 µM (inactive)	–
CC(=O)OC(C)(C)C[N+](=O)[O-]	–	> 100 µM (inactive)	> 100 µM (inactive)	> 100 µM (inactive)	> 100 µM (inactive)	> 100	–	> 100 µM (inactive)	> 100 µM (inactive)	> 100 µM (inactive)	–	> 100 µM (inactive)	> 100 µM (inactive)	–	–	> 100 µM (inactive)	–	–	> 100 µM (inactive)	–
COC(=O)C1=C2CCC(=O)[C@@]2(C)C(OC(C)=O)C=CC1 (stereo not given in full)	> 100 µM (inactive)	> 100 µM (inactive)	22.9 µM (inactive)	41.6 µM (inactive)	36.6 µM (inactive)	29.5	–	–	> 100 µM (inactive)	–	> 100 µM (inactive)	36.4 µM (inactive)	40.5 µM (inactive)	–	–	88.9 µM (inactive)	–	–	> 100 µM (inactive)	36.3 µM (inactive)
CCC1=CCN(c2cc(C)ccn2)OC1c1ccc(OC)cc1 (stereo not given)	–	35.2 µM (inactive)	23.7 µM (inactive)	30.2 µM (inactive)	–	27.3	–	–	30.3 µM (inactive)	30.1 µM (inactive)	16.9 µM (inactive)	38.1 µM (inactive)	23.6 µM (inactive)	–	–	32.5 µM (inactive)	–	–	–	–
COc1ccc2c(c1)CCCc1c-2nc2ccccc2c1N	8.24 µM (inactive)	12.9 µM (inactive)	5.24 µM (inactive)	–	–	12.5	–	5.73 µM (inactive)	–	8.57 µM (inactive)	3.72 µM (inactive)	10.7 µM (inactive)	2.45 µM (inactive)	13.4 µM (inactive)	17.8 µM (inactive)	9.1 µM (inactive)	12 µM (inactive)	10.3 µM (inactive)	10.7 µM (inactive)	–
N=S(c1ccccc1[N+](=O)[O-])c1ccccc1[N+](=O)[O-]	16.6 µM (inactive)	6.67 µM (inactive)	0.687 µM (active)	–	3.05 µM (inactive)	1.62	5.3 µM (inactive)	1.98 µM (inactive)	–	0.944 µM (active)	3.2 µM (inactive)	–	2.54 µM (inactive)	–	–	2.09 µM (inactive)	–	–	2.69 µM (inactive)	–
CCCCCCCCCCCCCCCCOCC(O)CO (stereo not given)	19.5 µM (inactive)	20.1 µM (inactive)	11.1 µM (inactive)	–	–	18.7	–	21 µM (inactive)	–	17.8 µM (inactive)	27.5 µM (inactive)	20.3 µM (inactive)	19.1 µM (inactive)	18.9 µM (inactive)	18.4 µM (inactive)	22.8 µM (inactive)	17.4 µM (inactive)	16.5 µM (inactive)	15.2 µM (inactive)	–
